According to PMC12775434, “Ultra-large virtual screening unveils potent agonists of the neuromodulatory orphan receptor GPR139” (Nature Communications, 2025):
Values joined by “and” are separate entries in the source; they are usually repeats but may differ in a detail not shown here. Identical values can stand only once.

Columns and labels:
Assay type in all cases: cell-based
GPR139 [1] = molecular target: T1, GPR139 (Homo sapiens, UniProt Q6DWJ6); assay: Ca2+ mobilization assay, antagonist mode (EC80 800 nM Lundbeck Cmp 1a after 20 min preincubation), GPR139-CHOk1
T1 sequence (Q6DWJ6 1-353): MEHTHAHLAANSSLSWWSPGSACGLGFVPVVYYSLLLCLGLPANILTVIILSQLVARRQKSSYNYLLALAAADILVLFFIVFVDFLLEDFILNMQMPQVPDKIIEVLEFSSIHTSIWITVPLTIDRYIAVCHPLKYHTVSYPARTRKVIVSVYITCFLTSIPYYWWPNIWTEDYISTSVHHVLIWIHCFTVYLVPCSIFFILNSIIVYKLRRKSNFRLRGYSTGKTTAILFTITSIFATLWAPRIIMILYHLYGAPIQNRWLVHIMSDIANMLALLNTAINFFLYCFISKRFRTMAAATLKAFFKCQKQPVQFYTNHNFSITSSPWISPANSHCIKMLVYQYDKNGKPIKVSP
Method in brief: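 Antagonist mode: 800 nM (EC80) reference agonist Lundbeck Cmp 1a added following 20 min pre-incubation with 10 µM compound. GPR139-CHOk1 cells, Fluo-4 dye, probenecid-containing HEPES buffer pH 7.4; intracellular Ca2+ measured at 37 °C (ex 485, em 525 nm).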

GPR139 [2] = molecular target: T1, GPR139; assay: Ca2+ mobilization assay, agonist mode, stable GPR139-CHOk1 cell line; details: for EC50 / Emax: Supplementary Table 2, mean ± SEM; for EC50: read-out: pEC50 Ca2+ (converted); for Emax: normalized to Lundbeck Cmp 1a, read-out: Emax (%) Ca2+
Method in brief: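 Agonist activity of compounds is assessed in stably transfected CHO-K1 cells using the calcium dye Fluo-4 at 37 °C in HEPES-buffered HBSS (pH 7.4). Efficacy is expressed relative to the reference agonist Lundbeck Cmp 1a, set as 100%.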

[3] = molecular target: T2, human muscarinic acetylcholine M1 receptor (M1R) (Homo sapiens, UniProt P11229); assay: Ca2+ mobilization counter-screen in M1R-CHOk1 cells;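 further: 10 µM test compound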
T2 sequence (P11229 1-460): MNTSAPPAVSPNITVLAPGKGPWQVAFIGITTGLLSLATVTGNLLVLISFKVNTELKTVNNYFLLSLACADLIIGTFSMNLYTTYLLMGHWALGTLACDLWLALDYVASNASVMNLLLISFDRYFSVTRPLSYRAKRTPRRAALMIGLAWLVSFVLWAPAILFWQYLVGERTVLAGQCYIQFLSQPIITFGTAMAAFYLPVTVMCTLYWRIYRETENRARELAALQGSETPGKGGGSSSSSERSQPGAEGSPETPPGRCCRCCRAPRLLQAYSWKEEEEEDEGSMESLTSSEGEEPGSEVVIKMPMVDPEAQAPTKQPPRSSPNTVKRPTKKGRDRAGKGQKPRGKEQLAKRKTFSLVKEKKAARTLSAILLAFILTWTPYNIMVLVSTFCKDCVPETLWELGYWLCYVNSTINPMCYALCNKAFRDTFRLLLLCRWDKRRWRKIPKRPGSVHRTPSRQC
Method in brief: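 Counter-screen used CHO-K1 cells stably carrying human M1R, Fluo-4 AM-loaded (2 µM, 1 h, 37 °C). Calcium signal measured at 485/525 nm after compound addition.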

[4] = individual replicates (Supplementary Figure 4)
[5] = Agonist mode, individual replicates (Supplementary Figure 4)
[6] = log [Compound] M = -4.5, individual replicate columns
[7] = log [Compound] M = -5.0, individual replicate columns
[8] = log [Compound] M = -5.5, individual replicate columns
[9] = log [Compound] M = -6.0, individual replicate columns
[10] = log [Compound] M = -6.5, individual replicate columns
[11] = log [Compound] M = -7.0, individual replicate columns
[12] = log [Compound] M = -7.5, individual replicate columns
[13] = log [Compound] M = -8.0, individual replicate columns
[14] = log [Compound] M = -8.5, individual replicate columns
[15] = log [Compound] M = -9.0, individual replicate columns
[16] = individual replicates (Supplementary Figure 5)

SMILES	Ca2+ signal (% of Cmp 1a) (GPR139 [1]; [4])	Ca2+ signal (% of Cmp 1a) (GPR139 [2]; [5])	EC50 (GPR139 [2])	Emax (GPR139 [2])	Ca2+ signal (% of Cmp 1a) (GPR139 [2]; [6])	Ca2+ signal (% of Cmp 1a) (GPR139 [2]; [7])	Ca2+ signal (% of Cmp 1a) (GPR139 [2]; [8])	Ca2+ signal (% of Cmp 1a) (GPR139 [2]; [9])	Ca2+ signal (% of Cmp 1a) (GPR139 [2]; [10])	Ca2+ signal (% of Cmp 1a) (GPR139 [2]; [11])	Ca2+ signal (% of Cmp 1a) (GPR139 [2]; [12])	Ca2+ signal (% of Cmp 1a) (GPR139 [2]; [13])	Ca2+ signal (% of Cmp 1a) (GPR139 [2]; [14])	Ca2+ signal (% of Cmp 1a) (GPR139 [2]; [15])	Ca2+ signal (% of Carbachol) [3, 16]	other results
CN1CC(=O)N(c2cccc(NC(=O)C3Cc4ccccc43)c2)C1=O (stereo not shown) [Compound 9, CN1CC(=O)N(C1=O)C=2C=CC=C(NC(=O)C3CC=4C=CC=CC34)C2]																Ca2+ signal (% of Cmp 1a) (GPR139 [1]; individual replicates (Supplementary Figure 1)): 73.6349 % of Cmp 1a and 73.421 % of Cmp 1a and 97.2374 % of Cmp 1a; Ca2+ signal (% of Cmp 1a) (GPR139 [2]; 0.1 µM, individual replicates (Supplementary Figure 3)): -6.9 % of Cmp 1a and -8.5 % of Cmp 1a; Ca2+ signal (% of Cmp 1a) (GPR139 [2]; 1 µM, individual replicates (Supplementary Figure 3)): -0.2 % of Cmp 1a and -5.2 % of Cmp 1a; Ca2+ signal (% of Cmp 1a) (GPR139 [2]; 10 µM, individual replicates (Supplementary Figure 3)): 18.7 % of Cmp 1a and 14.1 % of Cmp 1a; Ca2+ signal (% of Cmp 1a) (GPR139 [2]; Agonist mode, individual replicates (Supplementary Figure 1)): 25 % of Cmp 1a and 10 % of Cmp 1a and 48 % of Cmp 1a; Ca2+ signal (% of Carbachol) ([3]; individual replicates (Supplementary Figure 2)): -9 % of Carbachol and -19 % of Carbachol
COc1csc(-c2nc(CC(=O)NC(C)c3ccccc3)no2)c1 (stereo not shown) [Compound 1.39, COC1=CSC(=C1)C2=NC(CC(=O)NC(C)C=3C=CC=CC3)=NO2]	-8 % of Cmp 1a and 12 % of Cmp 1a and -11 % of Cmp 1a	80 % of Cmp 1a and 95 % of Cmp 1a and 86 % of Cmp 1a	316 nM	123 ± 14%	120 % of Cmp 1a and 97 % of Cmp 1a and 133 % of Cmp 1a	130 % of Cmp 1a and 91 % of Cmp 1a and 148 % of Cmp 1a	122 % of Cmp 1a and 94 % of Cmp 1a and 152 % of Cmp 1a	98 % of Cmp 1a and 72 % of Cmp 1a and 114 % of Cmp 1a	73 % of Cmp 1a and 44 % of Cmp 1a and 79 % of Cmp 1a	38 % of Cmp 1a and 21 % of Cmp 1a and 34 % of Cmp 1a	20 % of Cmp 1a and 15 % of Cmp 1a and 2 % of Cmp 1a	16 % of Cmp 1a and 17 % of Cmp 1a and -3.33 % of Cmp 1a	7 % of Cmp 1a and 12 % of Cmp 1a and -8 % of Cmp 1a	15 % of Cmp 1a and 20 % of Cmp 1a and 0.667 % of Cmp 1a	-14 % of Carbachol and -1 % of Carbachol and -5.33 % of Carbachol	
Cc1cnc2ccc(-c3nc(CC(=O)NC(C)c4ccccc4)no3)cn12 (stereo not shown) [Compound 1.40, CC(NC(=O)CC1=NOC(=N1)C=2C=CC3=NC=C(C)N3C2)C=4C=CC=CC4]	23 % of Cmp 1a and 31 % of Cmp 1a and 12 % of Cmp 1a	51 % of Cmp 1a and 56 % of Cmp 1a	3160 nM	86 ± 7%	93 % of Cmp 1a and 71 % of Cmp 1a and 89 % of Cmp 1a	80 % of Cmp 1a and 64 % of Cmp 1a and 78 % of Cmp 1a	57 % of Cmp 1a and 35 % of Cmp 1a and 53 % of Cmp 1a	32 % of Cmp 1a and 13 % of Cmp 1a and 17 % of Cmp 1a	17 % of Cmp 1a and -10 % of Cmp 1a and -16 % of Cmp 1a	21 % of Cmp 1a and -2.33 % of Cmp 1a and -20 % of Cmp 1a	0 % of Cmp 1a and 1.33 % of Cmp 1a and 22 % of Cmp 1a	11 % of Cmp 1a and 0.667 % of Cmp 1a and 28 % of Cmp 1a	16 % of Cmp 1a and -6.33 % of Cmp 1a and 31 % of Cmp 1a	20 % of Cmp 1a and -7 % of Cmp 1a and 0.667 % of Cmp 1a	-14 % of Carbachol and -5 % of Carbachol and -4.33 % of Carbachol	change in potency with larger substituents on the thiophene ring (GPR139 [2]; Ca2+ mobilization): three-fold reduction to a complete loss of activity
